From patent US20050202511A1, “AMP-activated protein kinase (AMPK) inhibitor screening assay” (priority 2002, published 2005)
Where two headings read alike, the source gives them in different places.

Columns and labels:
CLC2 CBS1-2 (WT) = molecular target: T1, CLC2 CBS1-2 (WT) (Homo sapiens, UniProt P51788); experiment: Filter binding assay, GST-CBS domain fusion; conditions: single-site model
T1 construct: DNAs encoding residues 582-840 of CLC2; made in house; host or cells: E. coli BL21 (DE3)
Procedure: (§8) ATP or [^35S]SAM were incubated with GST-CBS domain fusions (1 ìM for WT, up to 20 μM for some mutants) for 10 min at 25° C. in a 20 il total volume in TBS. Reactions were stopped by spotting 10 ìl onto a Millipore MF Filter Membrane disc and rapidly washing under high vacuum with 1 ml of ice-cold TBS. Radioactivity was determined on the filters by scintillation counting. Non-specific binding (which was trivial) was determined by performing the assay with GST as a control, and was subtracted. […] Data were fitted to the binding models given in the text, using GraphPad Prism 3.

rat liver AMPK = conditions: read-out: half-maximal effect (A0.5), cited from earlier work
[1] = molecular target: T2, IMPDH2 CBS domain pair (wild type) (Homo sapiens, UniProt P12268); experiment: Displacement of bound ATP; assay type: binding
T2 construct: For IMPDH2, DNAs encoding residues 112-232 or the full-length protein (1-514) were amplified; His tag (vector pHAT20); made in house; host or cells: E. coli
Procedure: as §8

[2] = molecular target: T3, recombinant á1â1γ1 heterotrimer (Rattus norvegicus, UniProt P80385); experiment: AMPK heterotrimer kinase assay, activation by AMP; assay type: biochemical
T3 construct: expressed in transfected cells; host or cells: CCL13 cells
T3 sequence (P80385 whole entry): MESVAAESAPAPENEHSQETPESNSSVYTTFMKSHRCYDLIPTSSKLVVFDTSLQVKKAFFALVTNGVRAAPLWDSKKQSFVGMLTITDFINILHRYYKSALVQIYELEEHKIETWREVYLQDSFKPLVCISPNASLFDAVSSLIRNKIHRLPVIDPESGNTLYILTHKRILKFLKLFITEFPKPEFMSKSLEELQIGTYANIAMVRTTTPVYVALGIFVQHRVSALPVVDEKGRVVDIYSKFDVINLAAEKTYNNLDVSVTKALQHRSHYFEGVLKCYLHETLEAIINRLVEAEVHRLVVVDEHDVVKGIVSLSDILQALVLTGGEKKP
T3 sequence (P54645 whole entry partner): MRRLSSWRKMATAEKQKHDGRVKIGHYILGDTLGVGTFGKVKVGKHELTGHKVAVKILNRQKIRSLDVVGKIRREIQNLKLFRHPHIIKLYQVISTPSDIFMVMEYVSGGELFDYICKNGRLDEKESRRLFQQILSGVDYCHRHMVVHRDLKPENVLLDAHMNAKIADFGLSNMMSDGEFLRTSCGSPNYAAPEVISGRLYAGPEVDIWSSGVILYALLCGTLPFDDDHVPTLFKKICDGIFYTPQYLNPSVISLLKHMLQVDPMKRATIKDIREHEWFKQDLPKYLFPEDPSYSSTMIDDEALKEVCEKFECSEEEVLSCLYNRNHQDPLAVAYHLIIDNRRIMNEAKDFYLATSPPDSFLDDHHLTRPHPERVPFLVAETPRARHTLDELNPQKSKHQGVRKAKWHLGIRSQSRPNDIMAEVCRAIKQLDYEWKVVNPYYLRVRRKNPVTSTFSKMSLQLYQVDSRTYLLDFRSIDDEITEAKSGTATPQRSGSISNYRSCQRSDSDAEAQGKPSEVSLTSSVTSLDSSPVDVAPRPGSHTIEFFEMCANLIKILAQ
T3 sequence (P80386 whole entry partner): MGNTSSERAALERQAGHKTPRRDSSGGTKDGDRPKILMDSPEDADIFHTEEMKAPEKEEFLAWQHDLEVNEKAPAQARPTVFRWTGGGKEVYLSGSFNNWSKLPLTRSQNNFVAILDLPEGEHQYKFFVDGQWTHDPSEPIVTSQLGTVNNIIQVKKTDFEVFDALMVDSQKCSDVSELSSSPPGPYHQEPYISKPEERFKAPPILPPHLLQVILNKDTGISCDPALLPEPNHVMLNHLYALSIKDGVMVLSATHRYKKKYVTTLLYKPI
From the text: (§1) Plasmids expressing myc-tagged á1, â1 and γ1, γ2 (with or without WPWS mutations) or γ3 were expressed in CCL13 cells and the recombinant complexes immunoprecipitated using anti-myc antibodies.
(§2) PCDNA plasmids (14,25,32) encoding á1, â1 and γ1, γ2 or γ3 were expressed in CCL13 cells (25), subject to “rapid lysis”, immunoprecipitated using anti-myc antibody, and assayed as described previously (33). “Slow lysis” of CCL13 cells was as described by Stein et al (34).

[3] = molecular target: T4, recombinant á1â1γ3 heterotrimer (Homo sapiens, UniProt Q9UGI9); experiment: AMPK heterotrimer kinase assay, activation by AMP; assay type: biochemical
T4 construct: expressed in transfected cells; host or cells: CCL13 cells
T4 sequence (Q9UGI9 whole entry): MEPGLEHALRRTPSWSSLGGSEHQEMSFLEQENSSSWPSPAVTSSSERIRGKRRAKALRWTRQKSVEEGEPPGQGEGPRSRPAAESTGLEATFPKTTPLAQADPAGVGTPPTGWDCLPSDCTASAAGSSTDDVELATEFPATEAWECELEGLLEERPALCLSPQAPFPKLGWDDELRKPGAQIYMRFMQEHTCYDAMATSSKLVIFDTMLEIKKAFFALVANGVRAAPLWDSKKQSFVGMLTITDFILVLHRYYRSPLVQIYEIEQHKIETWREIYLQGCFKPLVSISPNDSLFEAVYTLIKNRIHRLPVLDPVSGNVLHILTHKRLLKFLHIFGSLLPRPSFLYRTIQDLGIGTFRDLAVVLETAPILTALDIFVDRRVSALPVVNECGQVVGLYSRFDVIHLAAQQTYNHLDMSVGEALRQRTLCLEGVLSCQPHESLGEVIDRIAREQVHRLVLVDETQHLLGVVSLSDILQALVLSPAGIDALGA
T4 sequence (P54645 whole entry partner): as the sequence (P54645 whole entry partner) above
T4 sequence (P80386 2-270 partner limits assumed): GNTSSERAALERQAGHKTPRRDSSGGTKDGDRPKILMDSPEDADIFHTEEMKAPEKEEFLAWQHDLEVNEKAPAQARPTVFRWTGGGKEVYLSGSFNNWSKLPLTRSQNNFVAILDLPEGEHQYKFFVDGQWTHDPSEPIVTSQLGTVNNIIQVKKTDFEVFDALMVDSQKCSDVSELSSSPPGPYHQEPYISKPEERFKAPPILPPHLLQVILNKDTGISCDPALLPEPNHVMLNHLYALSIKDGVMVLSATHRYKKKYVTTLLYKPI
From the text: as §1, §2

[4] = molecular target: T5, recombinant á1â1γ2 heterotrimer (H383R) (Homo sapiens, UniProt Q9UGJ0, H383R); experiment: AMPK heterotrimer kinase assay, activation by AMP; assay type: biochemical; conditions: slow lysis; estimate somewhat less accurate; read-out: A0.5
T5 construct: expressed in transfected cells; host or cells: CCL13 cells
T5 sequence (Q9UGJ0 whole entry H383R): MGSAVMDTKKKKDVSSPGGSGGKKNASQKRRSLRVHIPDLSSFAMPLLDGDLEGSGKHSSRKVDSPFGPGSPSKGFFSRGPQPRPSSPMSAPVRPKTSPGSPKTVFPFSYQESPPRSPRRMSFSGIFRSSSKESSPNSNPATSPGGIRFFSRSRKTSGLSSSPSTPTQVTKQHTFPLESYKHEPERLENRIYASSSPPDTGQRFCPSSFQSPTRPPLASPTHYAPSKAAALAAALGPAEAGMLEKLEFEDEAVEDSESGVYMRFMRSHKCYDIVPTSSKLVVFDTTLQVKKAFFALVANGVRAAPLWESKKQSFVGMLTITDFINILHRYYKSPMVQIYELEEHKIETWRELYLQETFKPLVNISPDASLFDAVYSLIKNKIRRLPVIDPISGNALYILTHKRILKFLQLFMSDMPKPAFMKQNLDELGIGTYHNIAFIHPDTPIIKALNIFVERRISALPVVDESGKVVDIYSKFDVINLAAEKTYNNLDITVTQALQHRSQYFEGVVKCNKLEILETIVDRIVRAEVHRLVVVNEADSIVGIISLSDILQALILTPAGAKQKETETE
T5 sequence (P54645 whole entry partner): as the sequence (P54645 whole entry partner) above
T5 sequence (P80386 whole entry partner): as the sequence (P80386 whole entry partner) above
From the text: as §1
(§3) For this reason, the estimates of A0.5 for the H383R and T400N mutants are somewhat less accurate than the others, while no value could be obtained for the R531 G mutant. […] With some mutants, the maximal activation also appeared to be affected.
as §2

[5] = molecular target: T6, recombinant á1â1γ2 heterotrimer (R302Q) (Homo sapiens, UniProt Q9UGJ0, R302Q); experiment: AMPK heterotrimer kinase assay, activation by AMP; assay type: biochemical
T6 construct: expressed in transfected cells; host or cells: CCL13 cells
T6 sequence (Q9UGJ0 whole entry R302Q): as the sequence (Q9UGJ0 whole entry H383R) above, with R302Q, R383H counted along it
T6 sequence (P54645 whole entry partner): as the sequence (P54645 whole entry partner) above
T6 sequence (P80386 whole entry partner): as the sequence (P80386 whole entry partner) above
From the text: as §1, §3, §2

[6] = molecular target: T7, recombinant á1â1γ2 heterotrimer (T400N) (Homo sapiens, UniProt Q9UGJ0, T400N); experiment: AMPK heterotrimer kinase assay, activation by AMP; assay type: biochemical; conditions: slow lysis; estimate somewhat less accurate; read-out: A0.5
T7 construct: expressed in transfected cells; host or cells: CCL13 cells
T7 sequence (Q9UGJ0 whole entry T400N): as the sequence (Q9UGJ0 whole entry H383R) above, with R383H, T400N counted along it
T7 sequence (P54645 whole entry partner): as the sequence (P54645 whole entry partner) above
T7 sequence (P80386 whole entry partner): as the sequence (P80386 whole entry partner) above
From the text: as §1, §3, §2

CLC2 CBS1-2 (G715E) = molecular target: T8, CLC2 CBS1-2 (G715E) (Homo sapiens, UniProt P51788, G715E); experiment: Filter binding assay, GST-CBS domain fusion; conditions: single-site model
T8 construct: DNAs encoding residues 582-840 of CLC2; made in house; host or cells: E. coli BL21 (DE3)
T8 sequence (P51788 582-840 G715E): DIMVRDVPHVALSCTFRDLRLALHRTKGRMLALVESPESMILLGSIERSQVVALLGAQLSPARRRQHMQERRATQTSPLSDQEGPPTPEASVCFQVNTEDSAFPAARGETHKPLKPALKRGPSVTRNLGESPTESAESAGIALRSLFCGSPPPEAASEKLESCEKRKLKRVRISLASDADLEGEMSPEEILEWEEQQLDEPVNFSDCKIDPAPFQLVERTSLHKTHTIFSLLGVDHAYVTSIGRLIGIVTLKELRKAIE
From the text: (§4) DNA encoding the CBS domain pair from the chloride channel CLC2 was also cloned and expressed. […] The G715E mutation, in the linker between the first and second CBS domains of CLC2, is associated with idiopathic generalized epilepsy (29), while the G826D mutation is in an equivalent position in the second CBS domain to the G859D mutation in CLC1 that is associated with congenital myotonia (28).
(§5) For IMPDH2, DNAs encoding residues 112-232 or the full-length protein (1-514) were amplified using human liver cDNA (Clontech) as template, and cloned into pHAT20 (Clontech) using 5′-AgeI and 3′-KpnI sites added to the primers. For the other constructs, DNAs encoding residues 582-840 of CLC2, or 416-551 of cystathionine â-synthase, were amplified using human liver cDNA as template, and cloned into pGEX-KG as above using 5′-BamHI and 3′-XhoI sites added to the primers. All mutations were created using the Stratagene QuikChange Site-directed Mutagenesis system.
(§6) Various concentrations of [^14C]-AMP, [γ^32P] […] Reactions were stopped by spotting 10 ìl onto a Millipore MF Filter Membrane disc and rapidly washing under high vacuum with 1 ml of ice-cold TBS. Radioactivity was determined on the filters by scintillation counting. Non-specific binding (which was trivial) was determined by performing the assay with GST as a control, and was subtracted. […]

[7] = molecular target: T9, CLC2 CBS domain pair G826D (Homo sapiens, UniProt P51788, G828D); experiment: Filter binding assay, GST-CBS domain fusion; conditions: single-site model
T9 construct: DNAs encoding residues 582-840 of CLC2; made in house; host or cells: E. coli BL21 (DE3)
T9 sequence (P51788 582-840 G828D): as the sequence (P51788 582-840 G715E) above, with E134G, G247D counted along it
From the text: as §4, §5, §6

[8] = molecular target: T10, full-length IMPDH2 (R224P) (Homo sapiens, UniProt P12268, R224P); experiment: Enzymatic assay of IMPDH2; assay type: biochemical; conditions: highest concentration used 2 mM
T10 construct: DNAs encoding residues 112-232 or the full-length protein (1-514) were amplified using human liver cDNA; His tag (vector pHAT20); made in house; host or cells: E. coli
Procedure: (§7) IMPDH2 was assayed by following the increase in absorbance at 340 nm due to formation of NADH in a BMG Fluostar Optima plate reader at 30° C. in plate mode. The assay buffer contained 50 mM Tris/HCl, 100 mM KCl, 1 mM DTT, 3 mM EDTA, and 5 mM MgCl. […] The total volume was 200 μl and the reaction started by addition of IMP (or NAD^+ where [IMP] was the variable).

[9] = molecular target: T11, full-length IMPDH2 (wild type) (Homo sapiens, UniProt P12268); experiment: Enzymatic assay of IMPDH2; assay type: biochemical
T11 construct: DNAs encoding residues 112-232 or the full-length protein (1-514) were amplified using human liver cDNA; His tag (vector pHAT20); made in house; host or cells: E. coli
Procedure: as §7

[10] = immunoprecipitated from CCL13 cells, slow lysis, read-out: A0.5

T1 sequence (P51788 582-840): as the sequence (P51788 582-840 G715E) above, with E134G counted along it

SMILES	Kd (CLC2 CBS1-2 (WT)) [µM]	EC50 (rat liver AMPK; assays in 200 μM ATP) [µM]	EC50 (rat liver AMPK; at 4 mM ATP) [µM]	Kd [1] [µM]	stimulation by AMP [2] [fold]	EC50 [2, 10] [µM]	stimulation by AMP [3] [fold]	EC50 ([3]; approximate only, read-out: A0.5) [µM]	EC50 [4] [µM]	stimulation by AMP [5] [fold]	EC50 [5, 10] [µM]	EC50 [6] [µM]	Kd (CLC2 CBS1-2 (G715E)) [µM]	Kd [7] [µM]	effect on activity [8]	Hill coefficient of activation [9]	stimulation of IMPDH activity (Vmax) [9] [fold]	EC50 ([9]; read-out: A0.5 for ATP activation, as printed in discussion) [µM]	EC50 ([9]; read-out: half-maximal effect) [µM]
Nc1ncnc2c1ncn2[C@@H]1O[C@H](COP(=O)(O)O)[C@@H](O)[C@H]1O [AMP, adenosine monophosphate]	1060 ± 80	4.4	29	440	3.3	13 ± 2	1.5	2 ± 2	51 ± 40	3	23 ± 6	95 ± 32	10400 ± 1300	14300 ± 550	–	–	–	–	–
Nc1ncnc2c1ncn2[C@@H]1O[C@H](COP(=O)(O)OP(=O)(O)OP(=O)(O)O)[C@@H](O)[C@H]1O [ATP]	–	–	–	–	–	–	–	–	–	–	–	–	–	–	no effect	1.3±0.1	> 4	440	440 ± 50
